According to the supplement of paper PMC11061612:

Experiments:
Assay in all cases: Bliss excess, mean over the matrix (fraction); higher = more synergy
[1] = test system: KYSE-450 (Esophageal Squamous Cell Carcinoma)
In short: (§1)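 Bliss excess equals the observed combination effect minus the expected value EA + EB − EA·EB, where EA and EB are the effects of each agent alone. Combination Emax is the second-highest inhibition within the matrix. Inhibition was scaled from CellTiter-Glo 2.0 luminescence, with 0 set by vehicle wells and 1 by blank wells, after 72 hours of two-drug dosing of cells plated in 1536-well plates.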

[2] = test system: Ca9-22 (Head and Neck Carcinoma)
In short: as §1

[3] = test system: NCI-H727 (Other Solid Carcinomas)
In short: as §1

[4] = test system: PANC-04-03 (Pancreatic Carcinoma)
In short: as §1

YH-13 (Glioblastoma) = test system: YH-13 (Glioblastoma)
In short: as §1

[5] = test system: BT-549 (Breast Carcinoma)
In short: as §1

[6] = test system: HOP-62 (Lung Adenocarcinoma)
In short: as §1

[7] = test system: MIA-PaCa-2 (Pancreatic Carcinoma)
In short: as §1

[8] = test system: SW13 (Other Solid Carcinomas)
In short: as §1

TGW (Neuroblastoma) = test system: TGW (Neuroblastoma)
In short: as §1

[9] = test system: C-4-I (Cervical Carcinoma)
In short: as §1

ACHN (Kidney Carcinoma) = test system: ACHN (Kidney Carcinoma)
In short: as §1

[10] = test system: HGC-27 (Gastric Carcinoma)
In short: as §1

[11] = test system: KARPAS-299 (T-Cell Non-Hodgkin's Lymphoma)
In short: as §1

[12] = test system: RF-48 (B-Cell Non-Hodgkin's Lymphoma)
In short: as §1

[13] = test system: SU8686 (Pancreatic Carcinoma)
In short: as §1

[14] = test system: MLMA (Other Blood Carcinomas)
In short: as §1

[15] = test system: AMO-1 (Plasma Cell Myeloma)
In short: as §1

[16] = test system: VA-ES-BJ (Other Solid Carcinomas)
In short: as §1

UACC-62 (Melanoma) = test system: UACC-62 (Melanoma)
In short: as §1

Compound	Bliss excess [1]	Bliss excess [2]	Bliss excess [3]	Bliss excess [4]	Bliss excess (YH-13 (Glioblastoma))	Bliss excess [5]	Bliss excess [6]	Bliss excess [7]	Bliss excess [8]	Bliss excess (TGW (Neuroblastoma))	Bliss excess [9]	Bliss excess (ACHN (Kidney Carcinoma))	Bliss excess [10]	Bliss excess [11]	Bliss excess [12]	Bliss excess [13]	Bliss excess [14]	Bliss excess [15]	Bliss excess [16]	Bliss excess (UACC-62 (Melanoma))
CC(=O)c1c(C)c2cnc(Nc3ccc(N4CCNCC4)cn3)nc2n(C2CCCC2)c1=O [Palbociclib] + Cn1cnc2c(F)c(Nc3ccc(Br)cc3Cl)c(C(=O)NOCCO)cc21 [Selumetinib] (first compound max 10 µM, 7x7, partner max 10 µM)	0.0539	0.0539	-0.0139	-0.0213	0.0093	-0.0254	-0.0079	0.0413	0.044	0.0125	-0.0119	0.0146	0.0403	0.0661	-0.0489	-0.0971	0.0398	0.0844	-0.0518	-0.0359
COc1cccc(OCCCN)c1-c1cc(Nc2cnc(C#N)cn2)n[nH]1 [Prexasertib] + C=CCn1c(=O)c2cnc(Nc3ccc(N4CCN(C)CC4)cc3)nc2n1-c1cccc(C(C)(C)O)n1 [AZD1775] (first compound max 1 µM, partner max 1 µM)	0.219	0.0833	0.0061	0.0208	0.0439	0.0433	0.0474	0.143	0.0659	0.0499	0.0337	-0.0133	0.108	-0.0076	0.0178	0.0024	0.0034	0.047	0.12	-0.0118
COc1cccc(OCCCN)c1-c1cc(Nc2cnc(C#N)cn2)n[nH]1 [Prexasertib] + CCc1c2c(nc3ccc(O)cc13)-c1cc3c(c(=O)n1C2)COC(=O)[C@]3(O)CC [SN-38] (first compound max 1 µM, 7x7, partner max 0.3 µM)	0.19	0.0163	-0.0425	-0.067	0.0079	-0.0474	-0.0279	0.0334	0.0459	-0.0284	0.0026	-0.0755	0.0388	-0.0223	-0.0572	0.02	-0.0732	-0.04	-0.044	-0.042
COc1cccc(OCCCN)c1-c1cc(Nc2cnc(C#N)cn2)n[nH]1 [Prexasertib] + CN(C)CCCOc1ccc(-c2ccc3ncc4c(c3c2)n(C2CCOCC2)c(=O)n4C)cn1 [AZD0156] (first compound max 1 µM, 7x7, partner max 1 µM)	-0.0713	-0.0123	-0.0646	-0.0328	-0.0203	-0.0094	-0.0042	-0.0391	0.0256	-0.0253	-0.0273	-0.0318	-0.0193	0.0074	0.0213	-0.0068	-0.0349	-0.0341	-0.0395	0.0155
COc1cccc(OCCCN)c1-c1cc(Nc2cnc(C#N)cn2)n[nH]1 [Prexasertib] + C[C@@H]1COCCN1C2=NC(=NC(=C2)C3(CC3)[S@](=N)(=O)C)C4=C5C=CNC5=NC=C4 [AZD6738] (first compound max 1 µM, 7x7, partner max 10 µM)	0.0135	-0.0024	-0.0047	0.0017	-0.018	0.0054	0.0375	-0.105	0.0627	-0.019	-0.0449	-0.0503	-0.057	-0.0184	-0.0175	-0.0315	-0.0514	-0.0361	-0.0114	-0.0174
COc1cccc(OCCCN)c1-c1cc(Nc2cnc(C#N)cn2)n[nH]1 [Prexasertib] + Cc1cc2ncnn2cc1Nc1ncc2c(n1)n(C1CCOCC1)c(=O)n2C [AZD7648] (first compound max 1 µM, 7x7, partner max 10 µM)	-0.0017	-0.0231	-0.022	-0.0327	-0.0146	-0.0341	-0.0063	-0.0172	0.0009	-0.0512	0.0005	-0.0182	-0.0235	-0.0226	-0.0549	-0.0227	-0.0204	-0.004	0.013	-0.0125
COc1cccc(OCCCN)c1-c1cc(Nc2cnc(C#N)cn2)n[nH]1 [Prexasertib] + O=C(c1cc(Cc2n[nH]c(=O)c3ccccc23)ccc1F)N1CCN(C(=O)C2CC2)CC1 [Olaparib] (first compound max 1 µM, 7x7, partner max 10 µM)	-0.025	-0.007	-0.259	-0.0415	-0.0598	0.0195	-0.0319	-0.0781	0.0024	-0.0665	-0.0783	-0.0857	0.044	-0.0318	-0.0216	-0.0504	-0.0442	-0.0584	-0.0337	-0.0183
CCc1c2c(nc3ccc(O)cc13)-c1cc3c(c(=O)n1C2)COC(=O)[C@]3(O)CC [SN-38] + CN(C)CCCOc1ccc(-c2ccc3ncc4c(c3c2)n(C2CCOCC2)c(=O)n4C)cn1 [AZD0156] (first compound max 0.3 µM, 7x7, partner max 1 µM)	0.0937	0.0332	-0.006	-0.0226	-0.0036	-0.0888	0.0182	0.0279	0.0279	0.0047	0.115	-0.0134	0.077	0.071	-0.0098	-0.0327	-0.0501	-0.103	-0.0165	0.0077
Cn1cnc2c(F)c(Nc3ccc(Br)cc3Cl)c(C(=O)NOCCO)cc21 [Selumetinib] + C=CCn1c(=O)c2cnc(Nc3ccc(N4CCN(C)CC4)cc3)nc2n1-c1cccc(C(C)(C)O)n1 [AZD1775] (first compound max 10 µM, partner max 1 µM)	-0.037	0.0321	-0.0891	-0.0351	-0.0489	-0.0578	-0.0468	0.0552	-0.0576	-0.0219	0.0083	-0.0527	-0.052	0.0463	-0.0372	-0.0089	-0.0257	-0.0108	-0.112	-0.0006
Cn1cnc2c(F)c(Nc3ccc(Br)cc3Cl)c(C(=O)NOCCO)cc21 [Selumetinib] + CC(C)n1c(=O)n(C)c2cnc3cc(F)c(-c4ccc(OCCCN5CCCCC5)nc4)cc3c21 [AZD1390] (first compound max 10 µM, 7x7, partner max 0.3 µM)	-0.0416	0.0337	-0.0229	-0.0287	-0.0342	-0.0438	-0.0451	-0.0287	0.0129	-0.0393	-0.0078	0.0389	-0.0129	0.0285	-0.056	-0.0255	-0.0186	0.0291	-0.0471	-0.0092
Cn1cnc2c(F)c(Nc3ccc(Br)cc3Cl)c(C(=O)NOCCO)cc21 [Selumetinib] + CCN(CCO)CCCOc1ccc2c(Nc3cc(CC(=O)Nc4cccc(F)c4)[nH]n3)ncnc2c1 [AZD2811] (first compound max 10 µM, 7x7, partner max 1 µM)	-0.0117	0.0241	-0.0389	-0.0339	-0.14	-0.0216	-0.0772	0.0585	-0.0919	-0.026	0.0582	0.0086	-0.0515	0.0227	-0.0305	-0.0179	-0.026	0.0538	-0.0263	-0.0289
Cn1cnc2c(F)c(Nc3ccc(Br)cc3Cl)c(C(=O)NOCCO)cc21 [Selumetinib] + C[C@@H]1COCCN1C2=NC(=NC(=C2)C3(CC3)[S@](=N)(=O)C)C4=C5C=CNC5=NC=C4 [AZD6738] (first compound max 10 µM, 7x7, partner max 10 µM)	0.0046	-0.0197	0.0201	0.0023	-0.0485	-0.0936	-0.0175	0.0499	0.0113	-0.0288	0.0615	-0.0415	-0.0513	-0.013	-0.0651	-0.0168	-0.106	-0.0261	-0.0714	0.063
CC(=O)Nc1cccc(-n2c(=O)n(C3CC3)c(=O)c3c(Nc4ccc(I)cc4F)n(C)c(=O)c(C)c32)c1 [Trametinib] + Cc1nc(-c2cn3c(n2)-c2ccc(-c4cnn(C(C)(C)C(N)=O)c4)cc2OCC3)n(C(C)C)n1 [Taselisib] (first compound max 1 µM, 7x7, partner max 10 µM)	0.11	0.131	-0.0129	0.101	0.0704	0.0203	0.0978	0.148	0.316	0.085	0.229	0.132	-0.062	0.25	0.0627	0.094	-0.036	0.316	-0.0328	-0.0422
CC1(C)CCC(CN2CCN(c3ccc(C(=O)NS(=O)(=O)c4ccc(NCC5CCOCC5)c([N+](=O)[O-])c4)c(Oc4cnc5[nH]ccc5c4)c3)CC2)=C(c2ccc(Cl)cc2)C1 [Venetoclax] + C1CN(CCC1(C(=O)N[C@@H](CCO)C2=CC=C(C=C2)Cl)N)C3=NC=NC4=C3C=CN4 [Capivasertib] (first compound max 1 µM, 7x7, partner max 3 µM)	-0.0296	-0.0171	-0.0539	-0.0732	-0.039	-0.0385	-0.0565	-0.0384	-0.0238	-0.0211	-0.0099	-0.0358	-0.0002	-0.0004	0.0226	-0.0379	-0.0425	-0.0267	-0.0357	-0.0238
CC1(C)CCC(CN2CCN(c3ccc(C(=O)NS(=O)(=O)c4ccc(NCC5CCOCC5)c([N+](=O)[O-])c4)c(Oc4cnc5[nH]ccc5c4)c3)CC2)=C(c2ccc(Cl)cc2)C1 [Venetoclax] + C=CCn1c(=O)c2cnc(Nc3ccc(N4CCN(C)CC4)cc3)nc2n1-c1cccc(C(C)(C)O)n1 [AZD1775] (first compound max 1 µM, partner max 1 µM)	-0.0642	0.0384	0.0475	-0.0597	-0.0085	-0.0152	-0.0635	0.0944	0.0496	-0.0261	-0.0535	0.0604	-0.0252	0.008	0.0016	-0.0317	0.0421	0.0861	-0.0373	0.0405
